Results: patent publication US4853470A, “3-(piperidinyl)- and 3-(pyrrolidinyl)-1H-indazoles” (Hoechst-Roussel Pharmaceuticals, Inc., priority 1988, dated 1989)
Values joined by “and” are separate entries in the source; they are usually repeats but may differ in a detail not shown here. Identical values can stand only once. Like-named read-outs stand apart in the source and are kept apart here.

Legend:
[1] = system: supramaximal electroshock (extensor tonus); assay: supramaximal electroshock (SES) assay, anticonvulsant activity; type: in vivo, male mouse; conditions: for ED50 SES: i.p.; for ED50 SES / ED50: 206 volts rms for 300 msec; for SES, % protection (normalized percent inhibition) at indicated dose: @ 60 mg/kg i.p.; for ED50: Mus musculus, ip
Experimental: The compounds of the invention are also useful as anticonvulsants due to their anticonvulsant activity in mammals. Anticonvulsant activity is measured in the male mouse using the supramaximal electroshock (SES) assay described in Arch. Int. Pharmacodyn. 92: 97-107, 1952. In this procedure groups of animals are used. Drugs are prepared using distilled water and, if insoluble, a surfactant is added. Control animals receive vehicle. Drugs are routinely administered intraperitoneally (i.p.). The dosage volume is 10 ml/kg. A primary screen is given a 30 minute pretreat. The animal's eyes are placed across the output terminals of an A.C. shocker that delivers 206 volts rms for 300 msec. Electrode paste coats the animals eyes at the point of contact with the terminals. […] Protection is expressed as normalized percent inhibition relative to vehicle control.
A time response is carried out using six animals/group. Animals are tested at 30, 60 and 120 minutes postdrug. Additional time periods are tested if indicated by previous tests. When the peak activity time has been determined, a dose response is initiated using 10 animals/group at that time period. The ED50 and 95% confidence interval are calculated by computer probit analysis.

[2] = system: metrazol lethality (pentylenetetrazol); assay: metrazol lethality (MTZ), anticonvulsant activity; type: in vivo, male mice; conditions: for ED50: Mus musculus, ip; for MTZ, % protected at indicated dose: @ 60 mg/kg i.p.
Experimental: Anticonvulsant activity is also measured using the metrazol lethality (MTZ). In this procedure groups of male mice are utilized. Test drugs are prepared using distilled water and, if insoluble, a suitable surfactant is added. The route of administration is i.p., but all administration are in volumes proportional to 10 cc/kg.
For a time response, 25 animals (5/group) are administered drug i.p. at 15, 30, 60 and 90 minutes prior to Metrazol treatment. Control animals (2/group) receive vehicle. Metrazol (pentylenetetrazol) is prepared at a concentration of 225 mg/10 ml in distilled water. Metrazol is administered s.c. at 225 mg/kg in distilled water. Those animals alive 15 minutes after Metrazol injection are considered protected. The time period with the greatest percent protected is said to be that of peak drug activity.
A dose range is run in the same manner as a time response except that 50 animals (10/group) are tested at the peak time of drug activity. One group receives vehicle. An ED50 is calculated by means of linear regression.

[3] = system: tetrabenazine induced ptosis; assay: tetrabenazine induced ptosis assay (antidepressant activity); type: in vivo, mice; conditions: Mus musculus, ip; estimated 50% inhibition; read-out: ED50, inhibition of ptosis
Excerpt: The 3-(piperidinyl)- and 3-(pyrrolidinyl)-1H-indazoles of the present invention are also useful as antidepressants by virtue of their ability to elicit an antidepressant response in mammals. […] Thus, for example,. the intraperitoneal (i.p.) dose effecting an estimated 50% inhibition of ptosis (ED50) in mice produced in this assay is as follows: […]

apomorphine climbing = apomorphine climbing mice assay (antipsychotic activity); type: in vivo, mice (CK-1 male); conditions: for ED50: Mus musculus, ip, read-out: ED50, antipsychotic activity (climbing); for % decrease in climbing score at indicated dose: @ 10 mg/kg, i.p.
Experimental: Antipsychotic activity is determined in the climbing mice assay by methods similar to those described by P. Protais, et al., Psychopharmacol., 50, 1 (1976) and B. Costall, Eur. J. Pharmacol., 50, 39 (1978).
The subject CK-1 male mice (23-27 grams) are group-housed under standard laboratory conditions. The mice are individually placed in wire mesh stick cages (4"×4" by 10") and are allowed one hour for adaptation and exploration of the new environment. Then apomorphine is injected subcutaneously at 1.5 mg/kg, a dose causing climbing in all subjects for 30 minutes. Compounds to be tested for antipsychotic activity are injected intraperitoneally (i.p.) 30 minutes prior to the apomorphine challenge at a screening dose of 10 mg/kg.
For evaluation of climbing, 3 readings are taken at 10, 20, and 30 minutes after apomorphine administration according to the following scale:
4 paws on bottom (no climbing)
2 paws on the wall (rearing)
4 paws on the wall (full climb)
Mice consistently climbing before the injection of apomorphine will be discarded.
With full-developed apomorphine climbing, the animals are hanging onto the cage walls, rather motionless, over longer periods of time. By contrast, climbs due to mere motor stimulation usually only last a few seconds.
The climbing scores are individually totaled (maximal score: 6 per mouse over 3 readings) and the total score of the control group (vehicle intraperitoneally-apomorphine subcutaneously) is set to 100%. ED50 values with 95% confidence limits, calculated by a Linear Regression Analysis of some of the instant 3-(piperidinyl)-1H-indazoles and 3-(pyrrolidinyl)-1H-indazoles as well as standard antipsychotics, are presented in Table 1.

[4] = system: phenyl-p-quinone writhing; assay: phenyl-p-quinone writhing assay (analgesia); type: in vivo, mice; conditions: for ED50: Mus musculus, sc, read-out: ED50, inhibition of writhing; for inhibition of writhing at indicated dose: @ 20 mg/kg, s.c.
[5] = 30 minutes prior to apomorphine 1.5 mg/kg s.c.

Compound: 1-(2-Phenylethyl)-3-(1-methyl-4-piperidinyl)-1H-indazole hydrobromide [Example 14]
- ED50 SES [1]: 34.9 mg/kg

Compound: 1-(4-Nitrophenyl)-3-(1-methyl-4-piperidinyl)-1H-indazole hydrochloride [Example 7]
- SES, % protection (normalized percent inhibition) at indicated dose [1]: 0%

Compound: 1-(6-Fluoro-1,2-benzisoxazole-3-propyl)-3-(1-methyl-4-piperidinyl)-1H-indazole maleate [Example 11]
- ED50 MTZ ([2]; i.p., Metrazol 225 mg/kg s.c.): 79.6 mg/kg

Compound: 1-Hydroxymethyl-3-(1-methyl-4-piperidinyl)-1H-indazole [Example 10]
- ED50 SES [1]: 35.3 mg/kg

Compound: CN1CCC(c2nn(-c3ccccc3N)c3ccccc23)CC1.O=C(O)/C=C/C(=O)O [1-(2-Aminophenyl)-3-(1-methyl-4-piperidinyl)-1H-indazole fumarate]
- ED50 [3]: 19.2 mg/kg

Compound: CN1CCC(c2nn(-c3ccccc3Cl)c3ccccc23)CC1.O=C(O)/C=C/C(=O)O [1-(2-Chlorophenyl)-3-(1-methyl-4-piperidinyl)-1H-indazole fumarate]
- ED50 [3]: 5.3 mg/kg

Compound: Clc1ccccc1-n1nc(C2CCNCC2)c2ccccc21.O=C(O)/C=C/C(=O)O [1-(2-Chlorophenyl)-3-(4-piperidinyl)-1H-indazole fumarate]
- ED50 [3]: 5.9 mg/kg

Compound: CC(=O)n1nc(C2CCN(C)CC2)c2ccccc21.Cl [1-Acetyl-3-(1-methyl-4-piperidinyl)-1H-indazole hydrochloride]
- ED50 (apomorphine climbing): 5.4 mg/kg
- ED50 [4]: 0.71 mg/kg

Compound: CN1CCC(c2nn(C(=O)c3ccccc3)c3ccccc23)CC1.Cl [1-Benzoyl-3-(1-methyl-4-piperidinyl)-1H-indazole hydrochloride]
- ED50 (apomorphine climbing; [5]): 6.5 mg/kg
- ED50 ([4]; approximately 50% inhibition): 0.85 mg/kg

Compound: CN1CCC(c2nn(C(=O)c3ccccc3)c3cc(F)ccc23)CC1.O=C(O)/C=C/C(=O)O [1-Benzoyl-6-fluoro-3-(1-methyl-4-piperidinyl)-1H-indazole fumarate]
- ED50 (apomorphine climbing; [5]): 1.8 mg/kg
- ED50 ([4]; approximately 50% inhibition): 0.17 mg/kg

Compound: Br.CN1CCC(c2nn(CC3CC3)c3ccccc23)CC1 [1-Cyclopropylmethyl-3-(1-methyl-4-piperidinyl)-1H-indazole hydrobromide]
- % decrease in climbing score at indicated dose (apomorphine climbing): 36%
- ED50 ([4]; approximately 50% inhibition): 1.1 mg/kg

Compound: Br.CCn1nc(C2CCN(C)CC2)c2ccccc21 [1-Ethyl-3-(1-methyl-4-piperidinyl)-1H-indazole hydrobromide]
- % decrease in climbing score at indicated dose (apomorphine climbing): 41%
- ED50 [4]: 0.65 mg/kg

Compound: Br.CN1CCC(c2nn(Cc3ccccc3)c3ccccc23)CC1 [1-Phenylmethyl-3-(1-methyl-4-piperidinyl)-1H-indazole hydrobromide]
- inhibition of writhing at indicated dose ([4]; hydrobromide): 75% and 96%

Compound: CN(C)CCCn1nc(C2CCN(C)CC2)c2ccccc21.O=C(O)/C=C/C(=O)O.O=C(O)/C=C/C(=O)O [1-[3-(Dimethylamino)propyl]-3-(1-methyl-4-piperidinyl)-1H-indazole difumarate]
- inhibition of writhing at indicated dose [4]: 15%

Compound: CN1CCC(c2nn(-c3ccc(C(F)(F)F)cc3)c3ccccc23)CC1.Cl [3-(1-Methyl-4-piperidinyl)-1-[4-(trifluoromethyl)phenyl]-1H-indazole hydrochloride]
- ED50 ([4]; approximately 50% inhibition): 9.8 mg/kg

Compound: CN1CCC(c2nn(C(=O)OCC(Cl)(Cl)Cl)c3ccccc23)CC1.Cl [3-(1-Methyl-4-piperidinyl)-1-trichloroethoxycarbonyl-1H-indazole hydrochloride]
- % decrease in climbing score at indicated dose (apomorphine climbing): 46%

Compound: CN1CCC(c2n[nH]c3ccccc23)CC1 [3-(1-methyl-4-piperidinyl)-1H--indazole, 3-(1-Methyl-4-piperidinyl)-1H-indazole]
- ED50 (apomorphine climbing): 4.5 mg/kg
- ED50 [4]: 0.26 mg/kg

Compound: Fc1ccc(C(CCCN2CCC(c3n[nH]c4ccccc34)CC2)c2ccc(F)cc2)cc1 [3-[1-[4,4-bis(4-Fluorophenyl)butyl]-4-piperidinyl]-1H-indazole]
- ED50 (apomorphine climbing; [5]): 7.4 mg/kg
- inhibition of writhing at indicated dose [4]: 31%

Compound: CNC(=O)N1CCC(c2nn(-c3ccccc3F)c3ccccc23)CC1 [Compound 1]
- ED50 [1]: 37 mg/kg
- ED50 ([2]; Metrazol 225 mg/kg s.c.): 49 mg/kg

Compound: O=C(Nc1ccccc1)N1CCC(c2nn(-c3ccccc3)c3cc(F)ccc23)CC1 [Compound 2, N-Phenyl-4-(6-fluoro-1-phenyl-1H-indazol-3-yl)piperidine-1-carboxamide]
- SES, % protection (normalized percent inhibition) at indicated dose [1]: 0%
- MTZ, % protected at indicated dose [2]: 20%

Compound: Br.NC(=O)N1CCC(c2nn(-c3ccc(C(F)(F)F)cc3)c3ccccc23)CC1 [Compound 3, 4-[1-[4-(Trifluoromethyl)phenyl]-1H-indazol-3-yl]-1-piperidine carboxamide hydrobromide]
- ED50 [1]: 10.9 mg/kg
- ED50 ([2]; Metrazol 225 mg/kg s.c.): 27.4 mg/kg

Compound: CNC(=O)N1CCC(c2nn(-c3ccccc3)c3cc(F)ccc23)CC1 [Compound 4, N-Methyl-4-(6-fluoro-1-phenyl-1H-indazol-3-yl)piperidine-1-carboxamide]
- ED50 [1]: 64.9 mg/kg
- MTZ, % protected at indicated dose [2]: 0%

Compound: Fc1ccc2c(C3CCN(C(=S)Nc4ccccc4)CC3)nn(-c3ccccc3)c2c1 [Compound 5, N-Phenyl-4-(6-fluoro-1-phenyl-1H-indazol-3-yl)piperidine-1-carbothioamide]
- SES, % protection (normalized percent inhibition) at indicated dose [1]: 0%
- MTZ, % protected at indicated dose [2]: 17%

Compound: CNC(=O)N1CCC(c2nn(-c3ccc(C(F)(F)F)cc3)c3ccccc23)CC1 [Compound 6]
- ED50 [1]: 44.9 mg/kg
- MTZ, % protected at indicated dose [2]: 20%

Compound: CC(=O)N1CCC(c2nn(-c3ccccc3)c3cc(Br)ccc23)CC1 [Compound 8, 1-Acetyl-4-(6-bromo-1-phenyl-1H-indazol-3-yl)piperidine]
- SES, % protection (normalized percent inhibition) at indicated dose [1]: 33%
- MTZ, % protected at indicated dose [2]: 0%

Compound: CNC(=O)N1CCC(c2nn(-c3ccc(F)cc3)c3ccccc23)CC1 [Compound 9]
- ED50 [1]: 31.7 mg/kg
- ED50 ([2]; Metrazol 225 mg/kg s.c.): 45.5 mg/kg

Compound: O=CN1CCC(c2nn(-c3ccc(C(F)(F)F)cc3)c3ccccc23)CC1 [Compound 12]
- ED50 [1]: 27.2 mg/kg
- ED50 ([2]; Metrazol 225 mg/kg s.c.): 60.9 mg/kg

Compound: O=CN1CCC(c2nn(-c3ccc(F)cc3)c3ccccc23)CC1 [Compound 13]
- ED50 [1]: 24.7 mg/kg
- MTZ, % protected at indicated dose [2]: 40%

Compound: NC(=O)N1CCC(c2nn(-c3ccccc3)c3cc(Cl)ccc23)CC1 [Compound 15, 4-(6-Chloro-1-phenyl-1H-indazol-3-yl)piperidine-1-carboxamide]
- ED50 [1]: 48.1 mg/kg
- ED50 ([2]; Metrazol 225 mg/kg s.c.): 31.2 mg/kg

Compound: CN(C)C(=O)N1CCC(c2nn(-c3ccc(C(F)(F)F)cc3)c3ccccc23)CC1 [Compound 16]
- SES, % protection (normalized percent inhibition) at indicated dose [1]: 20%
- MTZ, % protected at indicated dose [2]: 20%

Compound: O=C(CCCN1CCC(O)(c2ccc(Cl)cc2)CC1)c1ccc(F)cc1 [haloperidol, reference compound]
- ED50 (apomorphine climbing): 0.11 mg/kg

Compound: CC(C)=CCN1CCC2(C)c3cc(O)ccc3CC1C2C (stereo not shown) [pentazocine, reference compound]
- ED50 [4]: 1.3 mg/kg

Compound: CCC(=O)O[C@](Cc1ccccc1)(c1ccccc1)[C@H](C)CN(C)C [propoxyphene, reference compound]
- ED50 [4]: 3.9 mg/kg
